Publication PMC10482975 (Nature Communications, 2023)

What was measured:
M3 mAChR WT = target: T1, M3 mAChR WT (Homo sapiens, UniProt P20309); assay: [3H]-NMS radioligand dissociation binding, M3 mAChR WT; conditions: M3 mAChR
T1 construct: expressed in transfected cells
Procedure: (§1) Flp-In Chinese hamster ovary (CHO) (Thermo Fisher Scientific) cells stably expressing mAChR WTs or mutant constructs were cultured in Dulbecco’s modified Eagle’s medium (DMEM, Invitrogen) containing 5% foetal bovine serum (FBS; ThermoTrace) and […] of hygromycin (Roche) in a humidified incubator (37 °C, 5% CO2). Upon reaching confluence, media was removed, cells were washed with phosphate buffered saline (PBS) and harvested from tissue culture flasks using versene (PBS with 0.2 g EDTA). Cells were then pelleted through centrifugation at 350 × g for three minutes followed by resuspension in DMEM + 5% FBS. Cells were then either plated for an assay or reseeded into a tissue culture flask.

M5 mAChR WT = target: T2, M5 mAChR WT (Homo sapiens, UniProt P08912); assay: [3H]-NMS radioligand dissociation binding, M5 mAChR WT
T2 construct: expressed in transfected cells
T2 sequence (P08912 1-532): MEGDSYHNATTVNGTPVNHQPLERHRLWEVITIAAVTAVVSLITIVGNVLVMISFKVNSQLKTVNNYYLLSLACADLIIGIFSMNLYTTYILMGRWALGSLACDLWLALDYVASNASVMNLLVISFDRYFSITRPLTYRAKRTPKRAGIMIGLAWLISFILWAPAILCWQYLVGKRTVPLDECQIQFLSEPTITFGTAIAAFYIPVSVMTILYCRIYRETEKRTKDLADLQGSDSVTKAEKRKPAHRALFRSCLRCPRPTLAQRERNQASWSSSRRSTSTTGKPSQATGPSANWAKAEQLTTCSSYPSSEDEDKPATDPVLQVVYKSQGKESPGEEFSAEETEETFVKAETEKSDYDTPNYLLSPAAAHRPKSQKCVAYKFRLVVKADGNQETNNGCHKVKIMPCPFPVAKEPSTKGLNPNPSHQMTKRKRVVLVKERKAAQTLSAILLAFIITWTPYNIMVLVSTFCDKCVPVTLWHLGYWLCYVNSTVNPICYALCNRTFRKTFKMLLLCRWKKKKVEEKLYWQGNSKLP
Procedure: as §1

M4 mAChR WT = target: T3, M4 mAChR WT (Homo sapiens, UniProt P08173); assay: [3H]-NMS radioligand dissociation binding, M4 mAChR WT; conditions: for [3H]-NMS binding remaining (0 min = 100), MEAN: M4 mAChR
T3 construct: expressed in transfected cells
T3 sequence (P08173 1-479): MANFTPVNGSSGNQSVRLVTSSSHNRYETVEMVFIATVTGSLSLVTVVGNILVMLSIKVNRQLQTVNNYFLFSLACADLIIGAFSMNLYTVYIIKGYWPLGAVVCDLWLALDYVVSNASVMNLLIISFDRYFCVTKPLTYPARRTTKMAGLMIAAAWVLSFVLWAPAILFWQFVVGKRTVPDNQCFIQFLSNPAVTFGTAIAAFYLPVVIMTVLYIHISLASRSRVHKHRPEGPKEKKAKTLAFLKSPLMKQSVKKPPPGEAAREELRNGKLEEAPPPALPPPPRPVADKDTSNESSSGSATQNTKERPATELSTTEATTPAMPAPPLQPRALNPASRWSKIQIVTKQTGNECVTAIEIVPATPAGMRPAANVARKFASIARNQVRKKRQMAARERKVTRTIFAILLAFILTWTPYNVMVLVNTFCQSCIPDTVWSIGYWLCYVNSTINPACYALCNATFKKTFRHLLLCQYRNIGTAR
Procedure: as §1

M2 mAChR WT = target: T4, M2 mAChR WT (Homo sapiens, UniProt P08172); assay: [3H]-NMS radioligand dissociation binding, M2 mAChR WT
T4 construct: expressed in transfected cells
T4 sequence (P08172 1-466): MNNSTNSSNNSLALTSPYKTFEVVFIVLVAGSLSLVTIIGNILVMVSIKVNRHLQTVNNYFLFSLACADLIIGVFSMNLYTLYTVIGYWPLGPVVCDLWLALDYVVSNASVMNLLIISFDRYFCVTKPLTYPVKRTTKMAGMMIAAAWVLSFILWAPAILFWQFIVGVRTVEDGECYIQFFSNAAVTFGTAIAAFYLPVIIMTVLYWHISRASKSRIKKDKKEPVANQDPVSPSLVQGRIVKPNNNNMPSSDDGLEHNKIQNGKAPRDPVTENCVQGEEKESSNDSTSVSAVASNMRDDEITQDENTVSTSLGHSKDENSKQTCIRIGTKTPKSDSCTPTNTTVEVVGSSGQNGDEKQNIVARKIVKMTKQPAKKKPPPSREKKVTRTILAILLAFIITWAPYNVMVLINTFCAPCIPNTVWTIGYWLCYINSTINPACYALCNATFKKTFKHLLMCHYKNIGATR
Procedure: as §1

[1] = 10uM Atr + 30uM LY2033, 120 min
[2] = 10uM Atr + 30uM LY2033, 210 min
[3] = 10uM Atr + 10 μM Iperoxo, 10 min
[4] = 10uM Atr + 10 μM Iperoxo, 15 min
[5] = 10uM Atr + 10 μM Iperoxo, 30 min
[6] = 10uM Atr + 10 μM Iperoxo, 90 min
[7] = 10uM Atr + 10 μM Iperoxo, 120 min
[8] = 10uM Atr + 10 μM Iperoxo, 210 min

T1 sequence (P20309 whole entry): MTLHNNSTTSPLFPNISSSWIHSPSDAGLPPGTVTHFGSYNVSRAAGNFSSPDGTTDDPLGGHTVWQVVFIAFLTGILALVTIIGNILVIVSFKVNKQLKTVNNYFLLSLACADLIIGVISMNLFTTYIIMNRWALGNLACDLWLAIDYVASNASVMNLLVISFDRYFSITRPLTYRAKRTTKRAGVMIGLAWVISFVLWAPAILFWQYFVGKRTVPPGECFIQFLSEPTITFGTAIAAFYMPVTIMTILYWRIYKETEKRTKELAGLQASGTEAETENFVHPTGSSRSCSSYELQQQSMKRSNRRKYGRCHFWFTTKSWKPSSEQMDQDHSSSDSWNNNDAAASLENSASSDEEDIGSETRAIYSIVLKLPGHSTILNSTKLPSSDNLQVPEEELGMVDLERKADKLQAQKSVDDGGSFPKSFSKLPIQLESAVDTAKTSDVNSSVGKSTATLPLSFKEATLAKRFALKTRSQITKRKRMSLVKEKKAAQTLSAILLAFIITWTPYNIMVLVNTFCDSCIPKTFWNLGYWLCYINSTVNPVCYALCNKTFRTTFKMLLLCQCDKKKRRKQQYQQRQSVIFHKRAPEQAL

COc1nc2sc(C(=O)NC3CC3)c(N)c2c(C)c1Cl [LY2033298]
[3H]-NMS binding remaining (0 min = 100), MEAN (M3 mAChR WT; 10uM Atr + 30uM LY2033, 10 min): 96.1336
[3H]-NMS binding remaining (0 min = 100), MEAN (M3 mAChR WT; 10uM Atr + 30uM LY2033, 15 min): 101.345
[3H]-NMS binding remaining (0 min = 100), MEAN (M3 mAChR WT; 10uM Atr + 30uM LY2033, 30 min): 103.79
[3H]-NMS binding remaining (0 min = 100), MEAN (M3 mAChR WT; 10uM Atr + 30uM LY2033, 90 min): 88.3999
[3H]-NMS binding remaining (0 min = 100), MEAN (M3 mAChR WT; [1]): 77.6461
[3H]-NMS binding remaining (0 min = 100), MEAN (M3 mAChR WT; [2]): 65.167
[3H]-NMS binding remaining (0 min = 100), MEAN (M5 mAChR WT; 10uM Atr + 30uM LY2033, 10 min): 102.761
[3H]-NMS binding remaining (0 min = 100), MEAN (M5 mAChR WT; 10uM Atr + 30uM LY2033, 15 min): 100.045
[3H]-NMS binding remaining (0 min = 100), MEAN (M5 mAChR WT; 10uM Atr + 30uM LY2033, 30 min): 98.0655
[3H]-NMS binding remaining (0 min = 100), MEAN (M5 mAChR WT; 10uM Atr + 30uM LY2033, 90 min): 75.4577
[3H]-NMS binding remaining (0 min = 100), MEAN (M5 mAChR WT; [1]): 66.5441
[3H]-NMS binding remaining (0 min = 100), MEAN (M5 mAChR WT; [2]): 53.7527
[3H]-NMS binding remaining (0 min = 100), MEAN (M4 mAChR WT; 10uM Atr + 10uM LY2033, 30 min): 112.685
[3H]-NMS binding remaining (0 min = 100), MEAN (M4 mAChR WT; 10uM Atr + 10uM LY2033, 60 min): 100.725
[3H]-NMS binding remaining (0 min = 100), MEAN (M4 mAChR WT; 10uM Atr + 10uM LY2033, 90 min): 100.81
[3H]-NMS binding remaining (0 min = 100), MEAN (M4 mAChR WT; 10uM Atr + 10uM LY2033, 180 min): 78.3598
[3H]-NMS binding remaining (0 min = 100), MEAN (M4 mAChR WT; 10uM Atr + 10uM LY2033, 300 min): 57.1596
[3H]-NMS binding remaining (0 min = 100), MEAN (M4 mAChR WT; 10uM Atr + 30uM LY2033, 30 min): 97.9955
[3H]-NMS binding remaining (0 min = 100), MEAN (M4 mAChR WT; 10uM Atr + 30uM LY2033, 90 min): 92.0634
[3H]-NMS binding remaining (0 min = 100), MEAN (M4 mAChR WT; 10uM Atr + 30uM LY2033, 180 min): 80.808
[3H]-NMS binding remaining (0 min = 100), MEAN (M4 mAChR WT; 10uM Atr + 30uM LY2033, 300 min): 69.858
[3H]-NMS binding remaining (0 min = 100), MEAN (M2 mAChR WT; 10uM Atr + 30uM LY2033, 5 min): 100.231
[3H]-NMS binding remaining (0 min = 100), MEAN (M2 mAChR WT; 10uM Atr + 30uM LY2033, 10 min): 104.86
[3H]-NMS binding remaining (0 min = 100), MEAN (M2 mAChR WT; 10uM Atr + 30uM LY2033, 15 min): 105.465
[3H]-NMS binding remaining (0 min = 100), MEAN (M2 mAChR WT; 10uM Atr + 30uM LY2033, 30 min): 97.2904
[3H]-NMS binding remaining (0 min = 100), MEAN (M2 mAChR WT; 10uM Atr + 30uM LY2033, 40 min): 99.7247
[3H]-NMS binding remaining (0 min = 100), MEAN (M2 mAChR WT; 10uM Atr + 30uM LY2033, 60 min): 83.2953
[3H]-NMS binding remaining (0 min = 100), MEAN (M2 mAChR WT; 10uM Atr + 30uM LY2033, 90 min): 74.9771

C[N+](C)(C)CC#CCOC1=NOCC1 [iperoxo]
[3H]-NMS binding remaining (0 min = 100), MEAN (M3 mAChR WT; [3]): 100.4
[3H]-NMS binding remaining (0 min = 100), MEAN (M3 mAChR WT; [4]): 96.8554
[3H]-NMS binding remaining (0 min = 100), MEAN (M3 mAChR WT; [5]): 79.7803
[3H]-NMS binding remaining (0 min = 100), MEAN (M3 mAChR WT; [6]): 45.8424
[3H]-NMS binding remaining (0 min = 100), MEAN (M3 mAChR WT; [7]): 38.0708
[3H]-NMS binding remaining (0 min = 100), MEAN (M3 mAChR WT; [8]): 19.3493
[3H]-NMS binding remaining (0 min = 100), MEAN (M5 mAChR WT; [3]): 98.7473
[3H]-NMS binding remaining (0 min = 100), MEAN (M5 mAChR WT; [4]): 104.707
[3H]-NMS binding remaining (0 min = 100), MEAN (M5 mAChR WT; [5]): 92.7543
[3H]-NMS binding remaining (0 min = 100), MEAN (M5 mAChR WT; [6]): 56.424
[3H]-NMS binding remaining (0 min = 100), MEAN (M5 mAChR WT; [7]): 46.6348
[3H]-NMS binding remaining (0 min = 100), MEAN (M5 mAChR WT; [8]): 27.5139
[3H]-NMS binding remaining (0 min = 100), MEAN (M4 mAChR WT; [5]): 88.7252
[3H]-NMS binding remaining (0 min = 100), MEAN (M4 mAChR WT; [6]): 52.6732
[3H]-NMS binding remaining (0 min = 100), MEAN (M4 mAChR WT; 10uM Atr + 10 μM Iperoxo, 180 min): 31.8571
[3H]-NMS binding remaining (0 min = 100), MEAN (M4 mAChR WT; 10uM Atr + 10 μM Iperoxo, 300 min): 17.3639
effect on [3H]-NMS dissociation (in words) (M4 mAChR WT; wild-type M4 mAChR, increasing concentrations of xanomeline, saturating concentration of iperoxo): had no effect
[3H]-NMS binding remaining (0 min = 100), MEAN (M2 mAChR WT; 10uM Atr + 10 μM Iperoxo, 5 min): 84.1199
[3H]-NMS binding remaining (0 min = 100), MEAN (M2 mAChR WT; [3]): 57.067
[3H]-NMS binding remaining (0 min = 100), MEAN (M2 mAChR WT; [4]): 42.2975
[3H]-NMS binding remaining (0 min = 100), MEAN (M2 mAChR WT; [5]): 18.0197
[3H]-NMS binding remaining (0 min = 100), MEAN (M2 mAChR WT; 10uM Atr + 10 μM Iperoxo, 40 min): 11.4621
[3H]-NMS binding remaining (0 min = 100), MEAN (M2 mAChR WT; 10uM Atr + 10 μM Iperoxo, 60 min): 5.852
[3H]-NMS binding remaining (0 min = 100), MEAN (M2 mAChR WT; [6]): 5.287
